For data set [1], the system named is Escherichia coli ATCC 25922. An outline of the steps: (§1)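 Peptides were made up as 1 mg/mL stocks in sterile water. Colonies in 0.85% saline were set to 0.5 McFarland, then diluted in cation-adjusted Mueller-Hinton II broth to about 5×10^5 CFU/mL. Inoculum was combined with two-fold serial peptide dilutions in water containing 0.002% (final) polysorbate 80.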
The subject of data set [2] is Escherichia coli MCR-1 Af 45. To be noted: Mueller-Hinton broth II, no visible growth after 18-20 hours at 35° C. An outline of the steps:
as §1

Data set [3] has as its system Klebsiella pneumoniae SSI3010. An outline of the steps:
as §1

The test system of data set [4] is human red blood cells (hRBC). Format: cell-based. An outline of the steps: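 Percent lysis was derived from supernatant absorbance at 540 nm relative to full lysis by 2.5% Triton X-100 (PBS defines 0%). Compounds, 200 μg/mL, were exposed for 1 h at 37° C to a 20% (v/v) suspension of washed human red cells.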
Where [5] appears, read: red cells of human, 1 h, 0.2 g/L.
Setting [6] is: Mueller-Hinton broth II, no visible growth after 18-20 hours at 35° C.

Where two headings read alike, the source gives them in different places. Where a SMILES comes first, the peptide text is derived from it.

We go through nine compounds from patent US20240228555A9, “ANTIMICROBIAL PEPTIDOMIMETICS” (Basilea Pharmaceutica International AG, Allschwil, priority 2020, published 2024).

With `CC[C@H](C)[C@H](NC(=O)[C@@H]1C[C@@H](F)CN1C(=O)[C@@H](N)C(C)C)C(=O)N[C@H](C(=O)N[C@@H](Cc1ccc(O)cc1)C(=O)N[C@@H]1C(=O)N[C@@H](CC(N)=O)C(=O)N[C@@H](CCCNC(=N)N)C(=O)N[C@@H](CCN)C(=O)N[C@@H]([C@@H](C)O)C(=O)N[C@H](CCN)C(=O)N[C@@H](CCCCN)C(=O)N[C@H](C(=O)N[C@@H](CCN)C(=O)N[C@@H](CCCNC(=N)N)C(=O)N[C@@H](Cc2ccc(O)cc2)C(=O)O)CSSC1(C)C)[C@@H](C)O` [Example 131, Val-Pro((4R)F)-Ile-Thr-Tyr-Pen-Asn-Arg-Dab-Thr-^DDab-Lys-Cys-Dab-Arg-Tyr] (HELM PEPTIDE1{V.[O=C([C@@H]1C[C@@H](F)CN1[*:1])[*:2]].I.T.Y.[Pen].N.R.[Dab].T.[NCC[C@@H](N[*:1])C(=O)[*:2]].K.C.[Dab].R.Y}$PEPTIDE1,PEPTIDE1,6:R3-13:R3$$$V2.0), the “Escherichia coli ATCC 25922 MIC” value in data set [1] (ATCC 25922) is 0.25 µg/mL. Besides, in data set [2], the “Escherichia coli MCR-1 Af 45 MIC” value was 0.125 µg/mL. Besides, the “Klebsiella pneumoniae SSI3010 MIC” value in data set [3] (SSI3010) worked out at 0.5 µg/mL. Besides, the “Hemolysis at 0.2 g/L” value in data set [4] (setting [5]) is on record as less than 1%.
The matching figures for `CC[C@H](C)[C@H](NC(=O)[C@@H](NC(=O)[C@@H]1C[C@@H](O)CN1C(=O)[C@@H](N)C(C)C)[C@@H](C)CC)C(=O)N[C@@H](Cc1ccc(O)cc1)C(=O)N[C@@H]1C(=O)N[C@@H](CC(N)=O)C(=O)N[C@@H](CCCNC(=N)N)C(=O)N[C@@H](CCN)C(=O)N[C@@H](CO)C(=O)N[C@H](CCN)C(=O)N[C@@H]([C@@H](C)CC)C(=O)N[C@H](C(=O)N[C@@H](CCN)C(=O)N[C@@H](CCCNC(=N)N)C(=O)N[C@@H](Cc2ccc(O)cc2)C(=O)O)CSSC1(C)C` [Example 118, Val-Hyp-Ile-Ile-Tyr-Pen-Asn-Arg-Dab-Ser-^DDab-Ile-Cys-Dab-Arg-Tyr] (HELM PEPTIDE1{V.[Hyp].I.I.Y.[Pen].N.R.[Dab].S.[NCC[C@@H](N[*:1])C(=O)[*:2]].I.C.[Dab].R.Y}$PEPTIDE1,PEPTIDE1,6:R3-13:R3$$$V2.0): 0.25 µg/mL, 0.25 µg/mL, 0.25 µg/mL and less than 1%.
Take `CC[C@H](C)[C@@H]1NC(=O)[C@@H](NC(=O)[C@H](Cc2ccc(O)cc2)NC(=O)[C@@H](NC(=O)[C@@H](NC(=O)[C@@H]2C[C@@H](O)CN2C(=O)[C@@H](N)C(C)(C)C)[C@@H](C)CC)[C@@H](C)O)C(C)(C)SSC[C@@H](C(=O)N[C@@H](CCN)C(=O)N[C@@H](CCCN)C(=O)N[C@@H](Cc2ccc(O)cc2)C(=O)O)NC(=O)[C@H](CCCCN)NC(=O)[C@@H](CCN)NC(=O)[C@H]([C@@H](C)O)NC(=O)[C@H](CCN)NC(=O)[C@H](CCCNC(=N)N)NC1=O` [Example 95, tBuGly-Hyp-Ile-Thr-Tyr-Pen-Ile-Arg-Dab-Thr-^DDab-Lys-Cys-Dab-Orn-Tyr] (HELM PEPTIDE1{[CC(C)(C)[C@H](N)C(=O)[*:2]].[Hyp].I.T.Y.[Pen].I.R.[Dab].T.[NCC[C@@H](N[*:1])C(=O)[*:2]].K.C.[Dab].[Orn].Y}$PEPTIDE1,PEPTIDE1,6:R3-13:R3$$$V2.0): the “Escherichia coli ATCC 25922 MIC” value in data set [1] (ATCC 25922) was 0.125 µg/mL. Also, the “Escherichia coli MCR-1 Af 45 MIC” value in data set [2] came out at 0.125 µg/mL. In data set [3] (SSI3010), the “Klebsiella pneumoniae SSI3010 MIC” value turned out to be 0.25 µg/mL. For the same compound, in data set [4] (setting [5]), the “Hemolysis at 0.2 g/L” value is less than 1%.
`CC[C@H](C)[C@H](NC(=O)[C@@H]1C[C@@H](Oc2ccccc2)CN1C(=O)[C@@H](N)C(C)C)C(=O)N[C@H](C(=O)N[C@@H](Cc1ccc(O)cc1)C(=O)N[C@@H]1C(=O)N[C@@H](CC(N)=O)C(=O)N[C@@H](CCCNC(=N)N)C(=O)N[C@@H](CCN)C(=O)N[C@@H]([C@@H](C)O)C(=O)N[C@H](CCN)C(=O)N[C@@H](CCCCN)C(=O)N[C@H](C(=O)N[C@@H](CCN)C(=O)N[C@@H](CCCNC(=N)N)C(=O)N[C@@H](Cc2ccc(O)cc2)C(=O)O)CSSC1(C)C)[C@@H](C)O` [Example 129, Val-Pro(4,4F2)-Ile-Thr-Tyr-Pen-Asn-Arg-Dab-Thr-^DDab-Lys-Cys-Dab-Arg-Tyr] (HELM PEPTIDE1{V.[O=C([C@@H]1C[C@@H](Oc2ccccc2)CN1[*:1])[*:2]].I.T.Y.[Pen].N.R.[Dab].T.[NCC[C@@H](N[*:1])C(=O)[*:2]].K.C.[Dab].R.Y}$PEPTIDE1,PEPTIDE1,6:R3-13:R3$$$V2.0): the “Escherichia coli ATCC 25922 MIC” value in data set [1] (ATCC 25922) came to 0.125 µg/mL. The “Escherichia coli MCR-1 Af 45 MIC” value in data set [2] is 0.0625 µg/mL. Further, the “Klebsiella pneumoniae SSI3010 MIC” value in data set [3] (SSI3010) was found to be 0.5 µg/mL. In data set [4] (setting [5]), the “Hemolysis at 0.2 g/L” value is given as less than 1%.
With `CC[C@H](C)[C@@H]1NC(=O)[C@@H](NC(=O)[C@H](Cc2ccc(O)cc2)NC(=O)[C@@H](NC(=O)[C@@H](NC(=O)[C@@H]2C[C@@H](O)CN2C(=O)[C@@H](N)C(C)C)[C@@H](C)CC)[C@@H](C)O)C(C)(C)SSC[C@@H](C(=O)N[C@@H](CO)C(=O)N[C@@H](CCCNC(=N)N)C(=O)N[C@@H](Cc2ccc(O)cc2)C(=O)O)NC(=O)[C@H](CCCCN)NC(=O)[C@@H](CCN)NC(=O)[C@H]([C@@H](C)O)NC(=O)[C@H](CCN)NC(=O)[C@H](CCCNC(=N)N)NC1=O` [Example 104, Val-Hyp-Ile-Thr-Tyr-Pen-Ile-Arg-Dab-Thr-^DDab-Lys-Cys-Ser-Arg-Tyr] (HELM PEPTIDE1{V.[Hyp].I.T.Y.[Pen].I.R.[Dab].T.[NCC[C@@H](N[*:1])C(=O)[*:2]].K.C.S.R.Y}$PEPTIDE1,PEPTIDE1,6:R3-13:R3$$$V2.0), the “Escherichia coli ATCC 25922 MIC” value in data set [1] (ATCC 25922) was found to be 0.125 µg/mL. Besides, the “Escherichia coli MCR-1 Af 45 MIC” value in data set [2] was determined as 0.125 µg/mL. Further, the “Klebsiella pneumoniae SSI3010 MIC” value in data set [3] (SSI3010) worked out at 0.25 µg/mL. For the same compound, in data set [4] (setting [5]), the “Hemolysis at 0.2 g/L” value is recorded as less than 1%.
Consider “Val-NalloThr-Ile-Thr-Tyr-Pen-Asn-Arg-Dab-Thr-^DDab-Lys-Cys-Dab-Arg-Tyr [Example 133]”, for which, in data set [1] (setting [6]), the “Escherichia coli ATCC 25922 MIC” value turned out to be 0.25 µg/mL. Moreover, in data set [2], the “Escherichia coli MCR-1 Af 45 MIC” value was determined as 0.25 µg/mL. Besides, the “Klebsiella pneumoniae SSI3010 MIC” value in data set [3] (setting [6]) amounted to 0.5 µg/mL. The “Hemolysis at 0.2 g/L” value in data set [4] is less than 1%.
With `CC[C@H](C)[C@H](NC(=O)[C@@H](NC(=O)[C@@H]1C[C@@H](N)CN1C(=O)[C@@H](N)C(C)C)[C@@H](C)CC)C(=O)N[C@@H](Cc1ccc(O)cc1)C(=O)N[C@@H]1C(=O)N[C@@H](CC(N)=O)C(=O)N[C@@H](CCCNC(=N)N)C(=O)N[C@@H](CCN)C(=O)N[C@@H]([C@@H](C)O)C(=O)N[C@H](CCN)C(=O)N[C@@H](CCCNC(N)=O)C(=O)N[C@H](C(=O)N[C@@H](CCN)C(=O)N[C@@H](CO)C(=O)N[C@@H](Cc2ccc(O)cc2)C(=O)O)CSSC1(C)C` [Example 106, Val-Pro((4R)NH2)-Ile-Ile-Tyr-Pen-Asn-Arg-Dab-Thr-^DDab-Cit-Cys-Dab-Ser-Tyr] (HELM PEPTIDE1{V.[N[C@@H]1C[C@@H](C(=O)[*:2])N([*:1])C1].I.I.Y.[Pen].N.R.[Dab].T.[NCC[C@@H](N[*:1])C(=O)[*:2]].[Cit].C.[Dab].S.Y}$PEPTIDE1,PEPTIDE1,6:R3-13:R3$$$V2.0), the “Escherichia coli ATCC 25922 MIC” value in data set [1] (ATCC 25922) came out at 0.25 µg/mL. Also, the “Escherichia coli MCR-1 Af 45 MIC” value in data set [2] is 0.25 µg/mL. For the same compound, in data set [3] (SSI3010), the “Klebsiella pneumoniae SSI3010 MIC” value turned out to be 0.25 µg/mL. The “Hemolysis at 0.2 g/L” value in data set [4] (setting [5]) is reported as less than 1%.
On to `CC[C@H](C)[C@H](NC(=O)[C@@H](NC(=O)[C@@H]1C[C@@H](O)CN1C(=O)[C@@H](N)C(C)C)[C@@H](C)CC)C(=O)N[C@@H](Cc1ccc(O)cc1)C(=O)N[C@@H]1C(=O)N[C@@H](CC(N)=O)C(=O)N[C@@H](CCCNC(=N)N)C(=O)N[C@@H](CCN)C(=O)N[C@@H]([C@@H](C)O)C(=O)N[C@H](CCN)C(=O)N[C@@H](CCCCN)C(=O)N[C@H](C(=O)N[C@@H](CCN)C(=O)N[C@@H](CCN)C(=O)N[C@@H](Cc2ccc(O)cc2)C(=O)O)CSSC1(C)C` [Example 74, Val-Hyp-Ile-Ile-Tyr-Pen-Asn-Arg-Dab-Thr-^DDab-Lys-Cys-Dab-Dab-Tyr] (HELM PEPTIDE1{V.[Hyp].I.I.Y.[Pen].N.R.[Dab].T.[NCC[C@@H](N[*:1])C(=O)[*:2]].K.C.[Dab].[Dab].Y}$PEPTIDE1,PEPTIDE1,6:R3-13:R3$$$V2.0), for which the “Escherichia coli ATCC 25922 MIC” value in data set [1] (ATCC 25922) was found to be 0.125 µg/mL. For the same compound, the “Escherichia coli MCR-1 Af 45 MIC” value in data set [2] turned out to be 0.0625 µg/mL. Besides, the “Klebsiella pneumoniae SSI3010 MIC” value in data set [3] (SSI3010) was found to be 0.25 µg/mL. In data set [4] (setting [5]), the “Hemolysis at 0.2 g/L” value is recorded as less than 1%.
On to `CC[C@H](C)[C@H](NC(=O)[C@@H](NC(=O)[C@@H]1C[C@@H](O)CN1C(=O)[C@@H](N)C(C)C)[C@@H](C)CC)C(=O)N[C@@H](Cc1ccc(O)cc1)C(=O)N[C@@H]1C(=O)N[C@@H](CC(N)=O)C(=O)N[C@@H](CCCNC(=N)N)C(=O)N[C@@H](CCN)C(=O)N[C@@H]([C@@H](C)O)C(=O)N[C@H](CCN)C(=O)N[C@@H](CCCCN)C(=O)N[C@H](C(=O)N[C@@H](CCN)C(=O)N[C@H](C(=O)N[C@@H](Cc2ccc(O)cc2)C(=O)O)[C@@H](C)O)CSSC1(C)C` [Example 111, Val-Hyp-Ile-Ile-Tyr-Pen-Asn-Arg-Dab-Thr-^DDab-Lys-Cys-Dab-Thr-Tyr] (HELM PEPTIDE1{V.[Hyp].I.I.Y.[Pen].N.R.[Dab].T.[NCC[C@@H](N[*:1])C(=O)[*:2]].K.C.[Dab].T.Y}$PEPTIDE1,PEPTIDE1,6:R3-13:R3$$$V2.0), for which the “Escherichia coli ATCC 25922 MIC” value in data set [1] (ATCC 25922) came to 0.25 µg/mL. Moreover, the “Escherichia coli MCR-1 Af 45 MIC” value in data set [2] stood at 0.125 µg/mL. In addition, in data set [3] (SSI3010), the “Klebsiella pneumoniae SSI3010 MIC” value came out at 0.5 µg/mL. Further, the “Hemolysis at 0.2 g/L” value in data set [4] (setting [5]) is recorded as less than 1%.
